“Also recorded” adds a separate entry of the source. Like-named read-outs stand apart in the source and are kept apart here.
Columns and labels:
A549 lung cancer cells [1] = assay: Cellular boron uptake by inductively coupled plasma mass spectroscopy; type: cell-based
Method: The measurement of total cellular boron was made using inductively coupled mass spectrometry. Boron concentrations were measured against a calibration curve generated with a series of NIST traceable standards. Yttrium and indium (20 ng/ml) internal standards were employed to correct for drift. Analyte recoveries were monitored by the addition of boron spikes (20 ng/ml) to the samples. Analyte response was corrected accordingly. Finally, a boron standard of 60 ng/ml was utilized to ensure continued calibration. […] The lung cancer cell culture with boron exposed cells was washed by centrifugation twice, and the supernate was removed by suction prior to chemical analysis. […] All the reagents for sample preparation were analytical grade. Concentrated nitric acid (1-2 ml) and 30% hydrogen peroxide was applied to the cells.
The nitric acid-hydrogen peroxide cocktail was allowed 96 hours for cellular digestion in tubes that facilitated the venting of generated gases. Intermittent stirring was also performed on the sample tubes. All contents were transformed to boron-free tubes and the final volume was adjusted with distilled water to a 10 ml total volume for each sample tested.

A549 lung cancer cells [2] = assay: Neutron irradiation (252Cf) cell survival, kill constant; type: cell-based; conditions: regression of semi-log cell survival plots, 252Cf neutrons
Method: The irradiation was performed by known techniques. The ^252 Cf isotope is a useful source of neutrons for BNCT (Hatanaka 1991, A). The neutron spectrum and beam characteristics are similar to those of reactor fission sources with a most probable energy of about 1 MeV. A 50 mg source of ^252 Cf moderated by water provides a source of 1×10^9 thermal neutrons/cm^2 /sec at a distance of 3 cm (personnel communication Dr. R. Martin). The half-life of ^252 Cf is 2.65 years, thus this provides a simple and reliable source of neutrons for BNCT in locations without suitable nuclear reactors.
This work was performed using sealed ^252 Cf source capsules in a hot cell without transferable radioactive contamination using a double tube arrangement which contained 1.0 ml of A 549 lung cancer cells (maximum cell number 2×10^6 cells/ml and minimum cell number 2×10^3 cells/ml). The cancer cells were exposed to approximately 2×10^8 thermal neutrons per cm^2 per second from 30 mg of ^252 Cf. The flux of neutrons was determined by the irradiation of manganese wire and subsequent analysis of activation. The duration of exposure of cells was 30 sec. 1, 1.5, 2.0 and 4.0 minutes for control groups and boronated compounds. Following radiation exposure, the A 549 lung cancer cells were placed on ice for subculturing and cell survival studies.
All boronated compounds tested worked as agents in boron neutron capture reactions. Cell survival data was calculated from semi-log plots and subjected to a regression analysis to obtain an X coefficient (kill constant) for each compound.

A549 lung cancer cells [3] = conditions: for level above which all cell growth is suppressed: human, 10080 min
Method: (§1) The cells were plated for undisturbed colony growth for seven to ten days and a survival assay was performed. Colonies were washed with isotonic saline and absolute methanol before staining with Giemsa and standard colony counting.

A549 lung cancer cells [4] = assay: Cellular toxicity, colony survival assay in A549 lung cancer cells; conditions: for A549 cell survival (Table 1) / level above which all cell growth is suppressed: seven day experiment
Method: as §1

[5] = tested on: human glioblastoma multiforme (brain) tumors; assay: Boron biodistribution (tumor, normal brain) in mice bearing human glioblastoma multiforme tumors; type: in vivo; conditions: sodium salt
Method: The water soluble sodium salt of the boron containing amino carboxylic compound VIII, was injected into four mice bearing human glioblastoma multiforme (brain) tumors on their hind quarter. One animal was sacrificed after 3 hours, 6 hours, 12 hours, and 24 hours and tissue samples were taken from the tumor, normal brain tissue, blood and muscle. At three hours the tumor contained 52 parts per million of boron and the normal brain contained only 7.6 ppm (a ratio of nearly 7:1). At twelve hours the tumor boron concentration was 37 ppm and the normal brain concentration was 3.7 ppm (a ratio of 10:1).

[6] = mice receiving the compound; cited from earlier work
tumor cells [7] = conditions: cited from earlier work; for ratio of boron in tumor cells compared to normal cells: in vivo
tumor cells [8] = conditions: in vivo; cited from earlier work

Molecule	Atoms of ^10 B in cell (A549 lung cancer cells [1])	kill constant (absolute value of X coefficient) (A549 lung cancer cells [2])	A549 cell survival (Table 1) (A549 lung cancer cells [4]; 1.25 μg B/ml)	A549 cell survival (Table 1) (A549 lung cancer cells [4]; 2.5 μg B/ml)	A549 cell survival (Table 1) (A549 lung cancer cells [4]; 5.0 μg B/ml)	A549 cell survival (Table 1) (A549 lung cancer cells [4]; 10.0 μg B/ml)	A549 cell survival (Table 1) (A549 lung cancer cells [4]; 15.0 μg B/ml)	A549 cell survival (Table 1) (A549 lung cancer cells [4]; 20.0 μg B/ml)	BNCT treatment outcome (tumor cells [8])	other results
1-Amino-3-[2-(1,7 dicarba-closo-dodecacaboran(12)-1-yl)ethyl]cyclobutanecarboxylic acid [ACBC]	2749 × 10^9 atoms ^10 B/cell	2.71	39	14	8	8	0	0	–	cellular uptake (words) (A549 lung cancer cells [1]): greatest cellular uptake; also recorded: almost two orders of magnitude greater in uptake than the other compounds tested; also recorded: excellent cellular uptake; toxicity (A549 lung cancer cells [3]): low toxicity; level above which all cell growth is suppressed (A549 lung cancer cells [3]): above 10 μg B/ml
1-amino-3-[2-(7-(2-hydroxyethyl)-1,7-dicarba-nido-dodecacaboran(12)-ylethyl]cyclobutanecarboxylic acid [VIII]	–	–	–	–	–	–	–	–	–	normal brain boron concentration ([5]; 3 hours): 7.6 ppm; normal brain boron concentration ([5]; 12 hours): 3.7 ppm; tumor boron concentration ([5]; 3 hours after injection): 52 parts per million; tumor boron concentration ([5]; 12 hours): 37 ppm
2,4-divinyl-nido-o-carboranyldeuteroporphoryin IX [VCDP]	–	–	–	–	–	–	–	–	–	mortality of mice [6]: about 10%
2-amino-5-[2-methyl]-1,2-dicarba-closo-dodecacarboran(12)-1-yl] pentane carboxylic acid [LSK 1-38]	96 × 10^9 atoms ^10 B/cell	2.64	50	33	18	2	0	0	–	cellular uptake (words) (A549 lung cancer cells [1]; listed as LSK1-38): excellent cellular uptake; cellular uptake (words) (A549 lung cancer cells [1]; listed as LSK-138): next highest cellular uptake; toxicity (A549 lung cancer cells [4]; A549 lung cancer cells): low toxicity; level above which all cell growth is suppressed (A549 lung cancer cells [4]): above 10 μg B/ml
5(4carboranyl-1-butynyl) uridine [CDU-4]	10 × 10^9 atoms ^10 B/cell	2.87	22	69	0	0	0	0	–	cellular uptake (words) (A549 lung cancer cells [1]): lowest in cellular uptake; level above which all cell growth is suppressed (A549 lung cancer cells [4]): above 2.5 μg B/ml
5(5carboranyl-1-pentynyl) deoxyuridine [CN-V-264]	50 × 10^9 atoms ^10 B/cell	2.88	10	4	0	0	0	0	–	cellular uptake (words) (A549 lung cancer cells [1]): lowest in cellular uptake; level above which all cell growth is suppressed (A549 lung cancer cells [3]): above 2.5 μg B/ml
N[C@@H](Cc1ccc(B(O)O)cc1)C(=O)O [BPA, boronophenylalanine]	–	–	–	–	–	–	–	–	–	deleterious effects (tumor cells [7]; compared with porphyrin): without the deleterious effects seen, for example, with porphyrin
O=BOB(O)OB(O)OB=O [borax]	–	–	–	–	–	–	–	–	treatment failure because of the lack of localization of boron within tumor cells	–
O=C(O)c1ccc(B(O)O)cc1 [p-carboxybenzeneboronic acid]	–	–	–	–	–	–	–	–	failed due to vascular damage caused by high blood levels of boron	ratio of boron in tumor cells compared to normal cells (tumor cells [7]): high ratios of boron in tumor cells compared to normal cells
O=BOB1OB2OB([O-])OB(O1)O2.[Na+] [sodium pentaborate]	–	–	–	–	–	–	–	–	treatment failure because of the lack of localization of boron within tumor cells	–
sodium decahydrodecaborate	–	–	–	–	–	–	–	–	failed due to vascular damage caused by high blood levels of boron	ratio of boron in tumor cells compared to normal cells (tumor cells [7]): high ratios of boron in tumor cells compared to normal cells

Reference: patent publication US6037490A, “Boron-containing amino carboxylic acid compounds and uses thereof” (priority 1997, dated 2000)
